Where a name gives a salt, the structure may show the parent alone.
Columns and labels:
[1] = system: Sclerotinia fructicola; assay: Mycelial growth test; assay type: cell-based; conditions: SF; for Percent Fungus Growth Inhibition: 72 hours; for inhibition at 5 ppm / inhibition at 10 ppm / inhibition at 20 ppm / inhibition at 40 ppm: Sclerotinia, 72 h, read-out: Percent Fungus Growth Inhibition
Description: | SF = Sclerotinia fructicola

[2] = system: Uromyces phaseoli; assay: whole plant or invertebrate; conditions: foliar, read-out: Percent Disease Control, foliar, bean rust

Row | Compound | Percent Fungus Growth Inhibition ([1]; 5 ppm) [%] | Percent Fungus Growth Inhibition ([1]; 10 ppm) [%] | Percent Fungus Growth Inhibition ([1]; 20 ppm) [%] | Percent Fungus Growth Inhibition ([1]; 40 ppm) [%] | inhibition at 5 ppm ([1]; 5 ppm) [%] | inhibition at 10 ppm ([1]; 10 ppm) [%] | inhibition at 20 ppm ([1]; 20 ppm) [%] | inhibition at 40 ppm ([1]; 40 ppm) [%] | pest or weed control at 150 ppm [2] [%] | Percent Fungus Growth Inhibition ([1]; 5 ppm, hydrochloride) [%] | Percent Fungus Growth Inhibition ([1]; 10 ppm, hydrochloride) [%] | Percent Fungus Growth Inhibition ([1]; 20 ppm, hydrochloride) [%] | Percent Fungus Growth Inhibition ([1]; 40 ppm, hydrochloride) [%]
1 | 3-chloro-5-(bromophenoxy)-4H-1,2,6-thiadiazin-4-one [Compound 33] | 44 | 61 | 94 | 100 | – | – | – | – | – | – | – | – | –
2 | 3-chloro-5-[methylaminocarbonyloxy)phenoxyl]-4H-1,2,6-thiadiazin-4-one [Compound 36] | 38 | 62 | 58 | 100 | – | – | – | – | – | – | – | – | –
3 | O=c1c(Cl)nsnc1Oc1ccccc1 [Compound 2, 3-chloro-5-phenoxy-4H--1,2,6-thiadiazin-4-one] | – | – | – | – | 52 | 67 | 100 | 100 | 100 | – | – | – | –
4 | Cc1ccc(Oc2nsnc(Cl)c2=O)cc1 [Compound 3, 3-chloro-5-(4-methylphenoxy)-4H--1,2,6-thiadiazin-4-one] | – | – | – | – | 27 | 67 | 94 | 100 | 100 | – | – | – | –
5 | CC(C)(C)c1ccc(Oc2nsnc(Cl)c2=O)cc1 [Compound 4, 3-chloro-5-(4-tert-butylphnoxy)-4H--1,2,6-thiadiazin-4-one] | – | – | – | – | 0 | 0 | 4 | 0 | 100 | – | – | – | –
6 | COc1ccc(Oc2nsnc(Cl)c2=O)cc1 [Compound 5, 3-chloro-5-(4-methoxyphenoxy)4H--1,2,6-thiadiazin-4-one] | – | – | – | – | 27 | 42 | 67 | 73 | 100 | – | – | – | –
7 | CCCCOc1ccc(Oc2nsnc(Cl)c2=O)cc1 [Compound 6, 3-chloro-5-(4-n-butoxyphenoxy)-4H--1,2,6-thiadiazin-4-one] | – | – | – | – | 0 | 67 | 0 | 67 | 0 | – | – | – | –
8 | CCOC(=O)c1ccc(Oc2nsnc(Cl)c2=O)cc1 [Compound 7, 3-chloro-5-(4-ethoxycarbonylphenoxy)-4H--1,2,6-thiadiazin-4-one] | – | – | – | – | 54 | 100 | 100 | 100 | 100 | – | – | – | –
9 | CC(=O)Nc1ccc(Oc2nsnc(Cl)c2=O)cc1 [Compound 8, 5-(4-acetylaminophenoxy)-3-chloro-4H--1,2,6-thiadiazin-4-one] | – | – | – | – | 0 | 0 | 51 | 60 | 100 | – | – | – | –
10 | O=c1c(Cl)nsnc1Oc1ccc([N+](=O)[O-])cc1 [Compound 9, 3-chloro-5-(4-nitrophenoxy)-4H--1,2,6-thiadiazin-4-one] | – | – | – | – | 58 | 76 | 100 | 100 | 98 | – | – | – | –
11 | N#Cc1ccc(Oc2nsnc(Cl)c2=O)cc1 [Compound 10, 3-chloro-5-(4-cyanophenoxy)-4H--1,2,6-thiadiazin-4-one] | – | – | – | – | – | 33 | 100 | 100 | 100 | – | – | – | –
12 | O=c1c(Cl)nsnc1Oc1ccc(F)cc1 [Compound 11, 3-chloro-5-(4-fluorophenoxy)-4H--1,2,6-thiadiazin-4-one] | – | – | – | – | 100 | 100 | 100 | 100 | 0 | – | – | – | –
13 | O=c1c(Cl)nsnc1Oc1ccc(Cl)cc1 [Compound 12, 3-chloro-5-(4-chlorophenoxy)-4H--1,2,6-thiadiazin-4-one] | – | – | – | – | 64 | 82 | 100 | 100 | 100 | – | – | – | –
14 | O=c1c(Cl)nsnc1Oc1cccc(Cl)c1 [Compound 13, 3-chloro-5-(3-chlorophenoxy)-4H--1,2,6-thiadiazin-4-one] | – | – | – | – | 51 | 67 | 100 | 100 | 100 | – | – | – | –
15 | O=c1c(Cl)nsnc1Oc1ccccc1Cl [Compound 14, 3-chloro-5-(2-chlorophenoxy)-4H--1,2,6-thiadiazin-4-one] | – | – | – | – | 47 | 64 | 87 | 100 | 0 | – | – | – | –
16 | O=c1c(Cl)nsnc1Oc1ccc(Br)cc1 [Compound 15, 3-chloro-5-(4-bromophenoxy)-4H--1,2,6-thiadiazin-4-one] | – | – | – | – | 92 | 83 | 83 | 88 | 100 | – | – | – | –
17 | O=c1c(Cl)nsnc1Oc1ccc(Cl)c(Cl)c1 [Compound 16, 3-chloro-5-(3,4-dichlorophenoxy)-4H--1,2,6-thiadiazin-4-one] | – | – | – | – | 64 | 67 | 67 | 67 | 90 | – | – | – | –
18 | O=c1c(Cl)nsnc1Oc1ccc(Cl)cc1Cl [Compound 17, 3-chloro-5-(2,4-dichlorophenoxy)-4H--1,2,6-thiadiazin-4-one] | – | – | – | – | 62 | 76 | 96 | 100 | 100 | – | – | – | –
19 | O=c1c(Cl)nsnc1Oc1c(Cl)cccc1Cl [Compound 18, 3-chloro-5-(2,6-dichlorophenoxy)-4H--1,2,6-thiadiazin-4-one] | – | – | – | – | 51 | 64 | 89 | 100 | 100 | – | – | – | –
20 | O=c1c(Cl)nsnc1Oc1cccc(Cl)c1Cl [Compound 19, 3-chloro-5-(2,3-dichlorophenoxy)-4H--1,2,6-thiadiazin-4-one] | – | – | – | – | 64 | 76 | 100 | 100 | 0 | – | – | – | –
21 | O=c1c(Cl)nsnc1Oc1cc(Cl)cc(Cl)c1 [Compound 20, 3-chloro-5-(3,5-dichlorophenoxy)-4H--1,2,6-thiadiazin-4-one] | – | – | – | – | 60 | 73 | 84 | 87 | 100 | – | – | – | –
22 | Cc1cccc(Oc2nsnc(Cl)c2=O)c1 [Compound 21, 3-chloro-5-(3-methylphenoxy)-4H--1,2,6-thiadiazin-4-one] | – | – | – | – | 100 | 100 | 100 | 100 | 100 | – | – | – | –
23 | Cc1ccccc1Oc1nsnc(Cl)c1=O [Compound 22, 3-chloro-5-(2-methylphenoxy)-4H--1,2,6-thiadiazin-4-one] | – | – | – | – | 24 | 100 | 100 | 100 | 100 | – | – | – | –
24 | Cc1ccc(Oc2nsnc(Cl)c2=O)c(C)c1 [Compound 23, 3-chloro-5-(2,4-dimethylphenoxy)-4H--1,2,6-thiadiazin-4-one] | – | – | – | – | 82 | 100 | 100 | 100 | 100 | – | – | – | –
25 | Cc1cccc(C)c1Oc1nsnc(Cl)c1=O [Compound 24, 3-chloro-5-(2,6-dimethylphenoxy)-4H--1,2,6-thiadiazin-4-one] | – | – | – | – | 100 | 100 | 100 | 100 | 100 | – | – | – | –
26 | Cc1cc(C)cc(Oc2nsnc(Cl)c2=O)c1 [Compound 25, 3-chloro-5-(3,5-dimethylphenoxy)-4H--1,2,6-thiadiazin-4-one] | – | – | – | – | 82 | 100 | 100 | 100 | 100 | – | – | – | –
27 | Nc1ccc(Oc2nsnc(Cl)c2=O)cc1 [Compound 26, 5-(4-aminophenoxy)-3-chloro-4H--1,2,6-thiadiazin-4-one] | 17 | 66 | – | – | – | – | – | 100 | 0 | – | – | – | –
28 | Nc1ccc(Oc2nsnc(Cl)c2=O)cc1 [Compound 27, 5-(4-aminophenoxy)-3-chloro-4H--1,2,6-thiadiazine-4-one hydrochloride] | – | – | – | – | – | – | – | – | – | 0 | 21 | 28 | 86
29 | CNC(=O)Nc1ccc(Oc2nsnc(Cl)c2=O)cc1 [Compound 28, 3-chloro-5-[4-(3-methylureido)-phenoxy]-4H--1,2,6-thiadiazin-4-one] | – | – | – | – | 17 | 28 | 0 | 62 | 0 | – | – | – | –
